The values below come from patent US20070293472A1, “Novel 14 and 15 Membered Ring Compounds” (Glaxo Group Limited, priority 2003, published 2007).

What all share (assay): MIC, standard broth dilution method in microtitre
Holding throughout (format): cell-based
(In general: Dilution methods test growth across graded concentrations, often in twofold steps.)

In one experiment the test system is E. faecalis ATCC 29212. The note with it: Enterococcus faecalis, ATCC29212. The method, then: (§1) Using a standard broth dilution method in microtitre, compounds were tested for antibacterial activity. The compounds in the above examples gave minimum inhibitory concentrations (MICs) less than 1 microgram per millilitre against erythromycin-sensitive and erythromycin-resistant strains of Streptococcus pneumoniae and Streptococcus pyogenes.
(§2) In addition, the MIC (μg/mL) of test compounds against various organisms was determined including:
(§3) S. aureus Smith ATCC 13709, S. pneumoniae SP030, S. pyogenes 3565, E. faecalis ATCC 29212, H. influenzae ATCC 49247, M. catarrhalis ATCC 23246.

The subject of another experiment is S. pneumoniae SP030. The note with it: Streptococcus pneumoniae. As to the method:
as §1, §2, §3

For the next experiment, the system named is S. pyogenes 3565. The note with it: Streptococcus pyogenes. The method, then:
as §1, §2, §3

Experiment [1] deals with S. aureus Smith ATCC 13709. The note with it: Staphylococcus aureus, ATCC13709. The method, then: as §1, §2, §3
Experiment [2] has as its system erythromycin-resistant strains of Streptococcus pneumoniae. As to the method:
as §1

In experiment [3] the test system is erythromycin-resistant strains of Streptococcus pyogenes. The method, then:
as §1

Experiment [4] relates to M. catarrhalis ATCC 23246. The note with it: Moraxella catarrhalis, ATCC23246. As to the method:
as §1, §2, §3

In another experiment the test system is H. influenzae ATCC 49247. The note with it: Haemophilus influenzae, ATCC49247. As to the method:
as §1, §2, §3

Structures are written as SMILES. Where a name gives a salt, the structure may show the parent alone.

Consider `CC[C@H]1OC(=O)[C@H](C)[C@@H](O[C@H]2C[C@@](C)(OC)[C@@H](OC(=O)CCNCCCc3cc4c(cc3F)c(=O)c(C(=O)O)cn4CC)[C@H](C)O2)[C@H](C)[C@@H](O[C@@H]2O[C@H](C)C[C@H](N(C)C)[C@H]2O)[C@](C)(OC)C[C@@H](C)C(=O)[C@H](C)[C@@H](O)[C@]1(C)O` [Example 1, 4″-O-{3-[3-(3-Carboxy-1,4-dihydro-1-ethyl-6-fluoro-4-oxo-7-quinolinyl)propylamino]propionyl}-6-O-methylerythromycin A], for which the MIC (against E. faecalis ATCC 29212; against S. pneumoniae SP030; in the experiment with S. pyogenes 3565; in experiment [1]) was not above 1 µg/mL throughout.

With `CC[C@@H]1OC(=O)[C@H](C)[C@H](O[C@@H]2C[C@](C)(OC)[C@H](OC(=O)CCNCCCc3cc4c(cc3F)c(=O)c(C(=O)O)cn4CC)[C@H](C)O2)[C@@H](C)[C@H](O[C@@H]2O[C@H](C)C[C@H](N(C)C)[C@@H]2O)[C@](C)(O)C[C@H](C)CN(C)[C@H](C)[C@@H](O)[C@]1(C)O` [Example 2, 4″-O-{3-[3-(3-Carboxy-1,4-dihydro-1-ethyl-6-fluoro-4-oxo-7-quinolinyl)propylamino]propionyl}-azithromycin tris trifluoroacetate salt], the MIC (with E. faecalis ATCC 29212; in the experiment on S. pneumoniae SP030; in the experiment on S. pyogenes 3565; in experiment [1]) was not above 1 µg/mL throughout.

In the case of `CC[C@@H]1OC(=O)[C@H](C)[C@H](O[C@@H]2C[C@](C)(OC)[C@H](OC(=O)CCNCCCc3ccc4c(c3)c(=O)c(C(=O)O)cn4CC)[C@H](C)O2)[C@@H](C)[C@H](O[C@@H]2O[C@H](C)C[C@H](N(C)C)[C@@H]2O)[C@](C)(O)C[C@H](C)CN(C)[C@H](C)[C@@H](O)[C@]1(C)O` [Example 5, 4″-O-{3-[3-(3-Carboxy-1,4-dihydro-1-ethyl-4-oxo-6-quinolinyl)propylamino]propionyl}-azithromycin], the MIC in experiment [2] and in experiment [3] was not above 0.25 µg/mL throughout.

Turning to `CC[C@@H]1OC(=O)[C@H](C)[C@H](O[C@@H]2C[C@](C)(OC)[C@H](OC(=O)CCNCCCc3ccc4c(c3)c(=O)c(C(=O)O)cn4CC)[C@H](C)O2)[C@@H](C)[C@H](O[C@@H]2O[C@H](C)C[C@H](N(C)C)[C@@H]2O)[C@](C)(O)C[C@H](C)CN(C)[C@@H](C)[C@H]2OC(=O)O[C@@]12C` [Example 6, 4″-O-{3-[3-(3-Carboxy-1-dihydro-1-ethyl-4-oxo-6-quinolinyl)propylamino]propionyl}-azithromycin-11,12-carbonate], the MIC in experiment [2] is not above 0.25 µg/mL; in experiment [3], not above 0.25 µg/mL; in the experiment with E. faecalis ATCC 29212 it was not above 1 µg/mL; with S. pneumoniae SP030, not above 1 µg/mL; with S. pyogenes 3565 it was not above 1 µg/mL; in experiment [1] it was not above 1 µg/mL. For the same compound, the MIC (in experiment [4]; in the experiment on H. influenzae ATCC 49247) was not above 2 µg/mL each time.

As to `CC[C@@H]1OC(=O)[C@H](C)[C@H](O[C@@H]2C[C@](C)(OC)[C@H](OC(=O)CCNCCCc3ccc4c(c3)c(=O)c(C(=O)O)cn4CC)[C@H](C)O2)[C@@H](C)[C@H](O[C@@H]2O[C@H](C)C[C@H](N(C)C)[C@@H]2O)[C@](C)(OC)C[C@H](C)C(=O)[C@@H](C)[C@H]2NC(=O)O[C@@]12C` [Example 7, 4″-O-{3-[3-(3-Carboxy-1,4-dihydro-1-ethyl-4-oxo-6-quinolinyl)propylamino]-propionyl}-6-O-methyl-11-desoxy-11-(R)-amino-erythromycin A 11,12-carbamate diformate salt], the MIC in experiment [2] is not above 0.25 µg/mL; in experiment [3], not above 0.25 µg/mL; in experiment [4], not above 2 µg/mL; in the experiment on H. influenzae ATCC 49247, not above 2 µg/mL.

Take `CC[C@@H]1OC(=O)[C@H](C)[C@H](O[C@@H]2C[C@](C)(OC)[C@H](OC(=O)CCNCCCc3ccc4c(c3)c(=O)c(C(=O)OC)cn4CC)[C@H](C)O2)[C@@H](C)[C@H](O[C@@H]2O[C@H](C)C[C@H](N(C)C)[C@@H]2O)[C@](C)(OC)C[C@H](C)C(=O)[C@@H](C)[C@H]2NC(=O)O[C@@]12C` [Example 8, 4″-O-{3-[3-(3-Carboxy-1,4-dihydro-1-ethyl-4-oxo-6-quinolinyl)propylamino]propionyl}-6-O-methyl-11-desoxy-11-(R)-amino-erythromycin A 11,12-carbamate methyl ester diformate salt]: the MIC in experiment [2] is not above 0.25 µg/mL; in experiment [3], not above 0.25 µg/mL; with E. faecalis ATCC 29212, not above 1 µg/mL; against S. pneumoniae SP030, not above 1 µg/mL; against S. pyogenes 3565, not above 1 µg/mL; in experiment [1] it was not above 1 µg/mL.
